{"source": "patent US20260263334A1", "about": "“COMPOSITIONS CONTAINING NITRATE-RICH FOODS AND EXTRACTS FOR SHIFTING THE ORAL MICROBIOME” (WM. WRIGLEY JR. COMPANY, priority 2023, published 2026)", "key": {"[1]": {"test_system": "Aggregatibacter actinomycetemcomitans (A.a.)", "assay": "nitrate reductase (NR) activity of A.a. (Griess test)", "assay_type": "cell-based", "experimental": "(§1) For evaluation of nitric oxide producing capability of oral bacteria, overnight cultures of test organisms were washed once and transferred into a medium without any nitrate or nitrite compounds. A 0.5% (or 1%) KNO3 was added to the medium, and further incubated anaerobically at 37° C. for 24-48 hours. The concentration of nitrite (due to reduction of nitrate by nitrate reductase) was determined by Griess Test over a desired period of time.\n(§2) To examine the effect of natural and chemical antimicrobial agents on NO production, test bacteria were pre-exposed to magnolia bark extract (MBE) (a natural germ-kill compound), peppermint oil, and chlorhexidine (CHX). The activities of nitrate reductase from oral bacteria were assayed by Griess test as described above. No treatment controls were included for each test bacterial species. The production of nitrite was reduced if the test antimicrobial compounds affected the nitrate reductase activity. Dose response curves were prepared.\nA. actinomycetemcomitans (A.a.) was grown anaerobically in THB broth supplemented with 1% yeast extract with 0.001% Hemin, and 0.0001% Vitamin K.\nThe nitrate source KNO3 (0.1% final) was added to respective growth media for individual test bacteria and incubated for 24-48 hours, then 20 μl of the culture broth was withdrawn and tested for nitrite with Griess reagent.\nTest bacteria were grown in respective media anaerobically for 48 hours. Cells were centrifuged and re-suspended in buffer or fresh medium for NR activity testing. […]\n(§3) Test bacteria cells were incubated with 1% cysteine in growth medium and 0.3% of a nitrate source. Controls contained no cysteine."}, "[2]": {"test_system": "Veillonella atypica (ATCC 17744) (V.a.)", "assay": "nitrate reductase (NR) activity of V.a (Griess test)", "assay_type": "cell-based", "details": "for NR activity of CHX treated V.a (OD): Reduced Transport buffer", "experimental": "as §1, §2\nV. atypica was grown in RCM medium without (NH4)2SO4 (to avoid the NH4 affecting Griess reagent); and without agar (0.05%, to avoid affecting the OD measurement).\nThe method used was the same as that for A.a., except the V.a cell concentration was adjusted to OD550 nm=0.7 (10^8 CFR/ml) in Reduced Transport buffer. The NR activity was also determined in the same buffer system. […]\nas §3"}, "[3]": {"test_system": "oral microbiota", "details": "mouthwash containing 0.12% of chlorhexidine, cited from earlier work"}, "[4]": {"details": "chlorhexidine >=10 μg/ml, summary"}}}
{"smiles": "[H]/N=C(\\N/C(=N/[H])NCCCCCCNC(=N)NC(=N)Nc1ccc(Cl)cc1)Nc1ccc(Cl)cc1", "note": "[CHX, chlorhexidine]", "values": [{"measurement": "NR activity of CHX treated A.a.", "setting": "[1]; CHX 100 μg/ml for 10 min", "value": "inhibited NR activity"}, {"measurement": "OD at 550 nm for A.a. NR activity test", "setting": "[1]; CHX 100 μg/ml, 1 min treatment, 2nd trial, 2 hr", "value": 0.212, "unit": "OD"}, {"measurement": "OD at 550 nm for A.a. NR activity test", "setting": "[1]; CHX 100 μg/ml, 1 min treatment, 2nd trial, 3 hr", "value": 0.856, "unit": "OD"}, {"measurement": "OD at 550 nm for A.a. NR activity test", "setting": "[1]; CHX 100 μg/ml, 1 min treatment, 3rd trial, 2 hr", "value": 0.844, "unit": "OD"}, {"measurement": "OD at 550 nm for A.a. NR activity test", "setting": "[1]; CHX 100 μg/ml, 10 min treatment, 1st trial, 2 hr", "value": 0.117, "unit": "OD"}, {"measurement": "OD at 550 nm for A.a. NR activity test", "setting": "[1]; CHX 100 μg/ml, 10 min treatment, 1st trial, 3 hr", "value": 0.130, "unit": "OD"}, {"measurement": "OD at 550 nm for A.a. NR activity test", "setting": "[1]; CHX 100 μg/ml, 10 min treatment, 2nd trial, 2 hr", "value": 0.284, "unit": "OD"}, {"measurement": "OD at 550 nm for A.a. NR activity test", "setting": "[1]; CHX 200 μg/ml, 1 min treatment, 2nd trial, 2 hr", "value": 0.279, "unit": "OD"}, {"measurement": "OD at 550 nm for A.a. NR activity test", "setting": "[1]; CHX 200 μg/ml, 1 min treatment, 2nd trial, 3 hr", "value": 0.849, "unit": "OD"}, {"measurement": "OD at 550 nm for A.a. NR activity test", "setting": "[1]; CHX 200 μg/ml, 1 min treatment, 3rd trial, 2 hr", "value": 0.852, "unit": "OD"}, {"measurement": "OD at 550 nm for A.a. NR activity test", "setting": "[1]; CHX 200 μg/ml, 10 min treatment, 1st trial, 2 hr", "value": 0.125, "unit": "OD"}, {"measurement": "OD at 550 nm for A.a. NR activity test", "setting": "[1]; CHX 200 μg/ml, 10 min treatment, 1st trial, 3 hr", "value": 0.127, "unit": "OD"}, {"measurement": "OD at 550 nm for A.a. NR activity test", "setting": "[1]; CHX 200 μg/ml, 10 min treatment, 2nd trial, 2 hr", "value": 0.125, "unit": "OD"}, {"measurement": "OD at 550 nm for A.a. NR activity test", "setting": "[1]; CHX 300 μg/ml, 1 min treatment, 1st trial, 2 hr", "value": 0.263, "unit": "OD"}, {"measurement": "OD at 550 nm for A.a. NR activity test", "setting": "[1]; CHX 300 μg/ml, 1 min treatment, 2nd trial, 2 hr", "value": 0.134, "unit": "OD"}, {"measurement": "OD at 550 nm for A.a. NR activity test", "setting": "[1]; CHX 300 μg/ml, 1 min treatment, 2nd trial, 3 hr", "value": 0.260, "unit": "OD"}, {"measurement": "OD at 550 nm for A.a. NR activity test", "setting": "[1]; CHX 300 μg/ml, 1 min treatment, 3rd trial, 2 hr", "value": 0.853, "unit": "OD"}, {"measurement": "OD at 550 nm for A.a. NR activity test", "setting": "[1]; CHX 300 μg/ml, 10 min treatment, 1st trial, 2 hr", "value": 0.115, "unit": "OD"}, {"measurement": "OD at 550 nm for A.a. NR activity test", "setting": "[1]; CHX 300 μg/ml, 10 min treatment, 1st trial, 3 hr", "value": 0.130, "unit": "OD"}, {"measurement": "OD at 550 nm for A.a. NR activity test", "setting": "[1]; CHX 300 μg/ml, 10 min treatment, 2nd trial, 2 hr", "value": 0.129, "unit": "OD"}, {"measurement": "OD at 550 nm for A.a. NR activity test", "setting": "[1]; CHX 500 μg/ml, 1 min treatment, 1st trial, 2 hr", "value": 0.284, "unit": "OD"}, {"measurement": "OD at 550 nm for A.a. NR activity test", "setting": "[1]; CHX 500 μg/ml, 1 min treatment, 2nd trial, 2 hr", "value": 0.107, "unit": "OD"}, {"measurement": "OD at 550 nm for A.a. NR activity test", "setting": "[1]; CHX 500 μg/ml, 1 min treatment, 2nd trial, 3 hr", "value": 0.213, "unit": "OD"}, {"measurement": "OD at 550 nm for A.a. NR activity test", "setting": "[1]; CHX 500 μg/ml, 1 min treatment, 3rd trial, 2 hr", "value": 0.443, "unit": "OD"}, {"measurement": "OD at 550 nm for A.a. NR activity test", "setting": "[1]; CHX 500 μg/ml, 10 min treatment, 1st trial, 2 hr", "value": 0.114, "unit": "OD"}, {"measurement": "OD at 550 nm for A.a. NR activity test", "setting": "[1]; CHX 500 μg/ml, 10 min treatment, 1st trial, 3 hr", "value": 0.118, "unit": "OD"}, {"measurement": "OD at 550 nm for A.a. NR activity test", "setting": "[1]; CHX 500 μg/ml, 10 min treatment, 2nd trial, 2 hr", "value": 0.131, "unit": "OD"}, {"measurement": "OD at 550 nm for A.a. NR activity test", "setting": "[1]; CHX 750 μg/ml, 1 min treatment, 1st trial, 2 hr", "value": 0.148, "unit": "OD"}, {"measurement": "OD at 550 nm for A.a. NR activity test", "setting": "[1]; CHX 750 μg/ml, 1 min treatment, 2nd trial, 2 hr", "value": 0.107, "unit": "OD"}, {"measurement": "OD at 550 nm for A.a. NR activity test", "setting": "[1]; CHX 750 μg/ml, 1 min treatment, 2nd trial, 3 hr", "value": 0.169, "unit": "OD"}, {"measurement": "OD at 550 nm for A.a. NR activity test", "setting": "[1]; CHX 750 μg/ml, 1 min treatment, 3rd trial, 2 hr", "value": 0.391, "unit": "OD"}, {"measurement": "OD at 550 nm for A.a. NR activity test", "setting": "[1]; CHX 750 μg/ml, 10 min treatment, 1st trial, 2 hr", "value": 0.118, "unit": "OD"}, {"measurement": "OD at 550 nm for A.a. NR activity test", "setting": "[1]; CHX 750 μg/ml, 10 min treatment, 1st trial, 3 hr", "value": 0.141, "unit": "OD"}, {"measurement": "OD at 550 nm for A.a. NR activity test", "setting": "[1]; CHX 750 μg/ml, 10 min treatment, 2nd trial, 2 hr", "value": 0.112, "unit": "OD"}, {"measurement": "NR activity of CHX treated A.a.", "setting": "[1]; CHX 1,000 μg/ml (0.1%) for 1 min", "value": "completely inhibited NR activity"}, {"measurement": "OD at 550 nm for A.a. NR activity test", "setting": "[1]; CHX 1000 μg/ml, 1 min treatment, 1st trial, 2 hr", "value": 0.160, "unit": "OD"}, {"measurement": "activities of nitrate reductase", "setting": "[1]; [4]", "value": "significantly inhibits"}, {"measurement": "NR activity of CHX treated V.a (OD)", "setting": "[2]; CHX 10 μg/ml, 1 min Treatment", "value": 0.266, "unit": "OD"}, {"measurement": "NR activity of CHX treated V.a (OD)", "setting": "[2]; CHX 10 μg/ml, 10 min Treatment", "value": 0.300, "unit": "OD"}, {"measurement": "NR activity of CHX treated V.a (OD)", "setting": "[2]; CHX 50 μg/ml, 1 min Treatment", "value": 0.304, "unit": "OD"}, {"measurement": "NR activity of CHX treated V.a (OD)", "setting": "[2]; CHX 50 μg/ml, 10 min Treatment", "value": 0.282, "unit": "OD"}, {"measurement": "NR activity of CHX treated V.a (OD)", "setting": "[2]; CHX 100 μg/ml, 1 min Treatment", "value": 0.255, "unit": "OD"}, {"measurement": "NR activity of CHX treated V.a (OD)", "setting": "[2]; CHX 100 μg/ml, 10 min Treatment", "value": 0.280, "unit": "OD"}, {"measurement": "NR activity of CHX treated V.a (OD)", "setting": "[2]; CHX 250 μg/ml, 1 min Treatment", "value": 0.190, "unit": "OD"}, {"measurement": "NR activity of CHX treated V.a (OD)", "setting": "[2]; CHX 250 μg/ml, 10 min Treatment", "value": 0.161, "unit": "OD"}, {"measurement": "NR activity of CHX treated V.a (OD)", "setting": "[2]; CHX 500 μg/ml, 1 min Treatment", "value": 0.170, "unit": "OD"}, {"measurement": "NR activity of CHX treated V.a (OD)", "setting": "[2]; CHX 500 μg/ml, 10 min Treatment", "value": 0.162, "unit": "OD"}, {"measurement": "activities of nitrate reductase", "setting": "[2]; [4]", "value": "significantly inhibits"}, {"measurement": "VSC-producing bacteria and enteric nitric oxide producing bacteria", "setting": "[3]", "value": "reduced"}, {"measurement": "oral and plasma nitrite levels", "setting": "[3]; healthy human volunteers", "value": "reduced"}, {"measurement": "systolic and diastolic blood pressure", "setting": "[3]; healthy human volunteers", "value": "sustained increase"}]}
